Measured values: ChEMBL document CHEMBL5463725, “Data for DCP probe BAY-277” (2023)

Key:
[1] = target: Serine/threonine-protein kinase Sgk1 (Homo sapiens) (UniProt O00141); test: Inhibition of SGK(h) at 10.0 µM in the Eurofins Kinase panel; conditions: Compound concentration 10.0 uM
[2] = target: Serine/threonine-protein kinase 38 (Homo sapiens) (UniProt Q15208); test: Inhibition of NDR1(h) at 10.0 µM in the Eurofins Kinase panel; conditions: Compound concentration 10.0 uM
[3] = target: Serine/threonine-protein kinase 38-like (Homo sapiens) (UniProt Q9Y2H1); test: Inhibition of NDR2(h) at 10.0 µM in the Eurofins Kinase panel; conditions: Compound concentration 10.0 uM
[4] = target: Tyrosine-protein kinase Lck (Homo sapiens) (UniProt P06239); test: Inhibition of Lck(h) activated at 10.0 µM in the Eurofins Kinase panel; conditions: Compound concentration 10.0 uM
[5] = target: Serine/threonine-protein kinase Sgk3 (Homo sapiens) (UniProt Q96BR1); test: Inhibition of SGK3(h) at 10.0 µM in the Eurofins Kinase panel; conditions: Compound concentration 10.0 uM
[6] = target: Protein kinase C gamma type (Homo sapiens) (UniProt P05129); test: Inhibition of PKCgamma(h) at 10.0 µM in the Eurofins Kinase panel; conditions: Compound concentration 10.0 uM
[7] = target: Sodium- and chloride-dependent GABA transporter 1 (Rattus norvegicus) (UniProt P23978); test: Inhibition of Transporter, GABA at 10.0 µM in the Eurofins Panlabs Safety Screen; conditions: Compound concentration 10.0 uM
[8] = target: Tyrosine-protein kinase Mer (Homo sapiens) (UniProt Q12866); test: Inhibition of Mer(h) at 10.0 µM in the Eurofins Kinase panel; conditions: Compound concentration 10.0 uM
[9] = target: Serine/threonine-protein kinase 26 (Homo sapiens) (UniProt Q9P289); test: Inhibition of MST4(h) at 10.0 µM in the Eurofins Kinase panel; conditions: Compound concentration 10.0 uM
[10] = target: Serine/threonine-protein kinase Nek1 (Homo sapiens) (UniProt Q96PY6); test: Inhibition of NEK1(h) at 10.0 µM in the Eurofins Kinase panel; conditions: Compound concentration 10.0 uM
[11] = target: Casein kinase II subunit alpha' (Homo sapiens) (UniProt P19784); test: Inhibition of CK2alpha2(h) at 10.0 µM in the Eurofins Kinase panel; conditions: Compound concentration 10.0 uM
[12] = target: Serine/threonine-protein kinase Nek5 (Homo sapiens) (UniProt Q6P3R8); test: Inhibition of NEK5(h) at 10.0 µM in the Eurofins Kinase panel; conditions: Compound concentration 10.0 uM
[13] = target: Ribosomal protein S6 kinase alpha-5 (Homo sapiens) (UniProt O75582); test: Inhibition of MSK1(h) at 10.0 µM in the Eurofins Kinase panel; conditions: Compound concentration 10.0 uM
[14] = target: Serine/threonine-protein kinase tousled-like 1 (Homo sapiens) (UniProt Q9UKI8); test: Inhibition of TLK1(h) at 10.0 µM in the Eurofins Kinase panel; conditions: Compound concentration 10.0 uM
[15] = target: Megakaryocyte-associated tyrosine-protein kinase (Homo sapiens) (UniProt P42679); test: Inhibition of MATK(h) at 10.0 µM in the Eurofins Kinase panel; conditions: Compound concentration 10.0 uM
[16] = target: Mitogen-activated protein kinase kinase kinase kinase 2 MAP4K2 (Homo sapiens) (UniProt Q12851); test: Inhibition of GCK at 10.0 µM in the Eurofins Kinase panel; conditions: Compound concentration 10.0 uM
[17] = target: Muscarinic acetylcholine receptor M5 (Homo sapiens, UniProt P08912); test: GPCRScan assay: inhibition of M5; parameters: radioligand conc. used [nm] 0.2 – 1.0, parental cells stable CHO
Muscarinic acetylcholine receptor M5, sequence (P08912 whole entry): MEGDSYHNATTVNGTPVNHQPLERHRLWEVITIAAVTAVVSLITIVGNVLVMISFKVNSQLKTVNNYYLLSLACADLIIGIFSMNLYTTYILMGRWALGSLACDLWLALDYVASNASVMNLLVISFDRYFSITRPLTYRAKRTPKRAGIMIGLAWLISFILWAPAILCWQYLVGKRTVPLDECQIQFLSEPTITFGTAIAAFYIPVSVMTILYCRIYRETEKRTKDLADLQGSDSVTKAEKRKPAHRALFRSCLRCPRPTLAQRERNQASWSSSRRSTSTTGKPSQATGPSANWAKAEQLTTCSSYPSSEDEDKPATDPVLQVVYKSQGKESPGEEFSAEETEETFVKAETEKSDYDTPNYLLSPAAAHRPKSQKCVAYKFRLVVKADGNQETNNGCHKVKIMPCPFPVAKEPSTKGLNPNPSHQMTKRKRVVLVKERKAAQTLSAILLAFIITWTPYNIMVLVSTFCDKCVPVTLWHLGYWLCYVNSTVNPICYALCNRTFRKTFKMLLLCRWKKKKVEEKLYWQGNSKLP

Serine/threonine-protein kinase 26 (Homo sapiens), sequence (Q9P289 2-416 limits assumed): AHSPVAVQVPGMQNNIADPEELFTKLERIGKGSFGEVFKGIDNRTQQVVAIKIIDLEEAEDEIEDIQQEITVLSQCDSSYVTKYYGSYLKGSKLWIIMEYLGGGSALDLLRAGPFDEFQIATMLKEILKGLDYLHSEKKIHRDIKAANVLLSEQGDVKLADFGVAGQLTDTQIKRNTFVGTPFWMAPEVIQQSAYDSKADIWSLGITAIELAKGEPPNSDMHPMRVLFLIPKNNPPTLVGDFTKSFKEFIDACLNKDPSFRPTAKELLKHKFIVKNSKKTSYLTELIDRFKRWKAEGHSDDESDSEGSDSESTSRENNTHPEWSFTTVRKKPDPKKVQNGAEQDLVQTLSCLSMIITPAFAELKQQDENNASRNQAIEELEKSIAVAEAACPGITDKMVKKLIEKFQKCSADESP
Serine/threonine-protein kinase Sgk1 (Homo sapiens), sequence (O00141 whole entry): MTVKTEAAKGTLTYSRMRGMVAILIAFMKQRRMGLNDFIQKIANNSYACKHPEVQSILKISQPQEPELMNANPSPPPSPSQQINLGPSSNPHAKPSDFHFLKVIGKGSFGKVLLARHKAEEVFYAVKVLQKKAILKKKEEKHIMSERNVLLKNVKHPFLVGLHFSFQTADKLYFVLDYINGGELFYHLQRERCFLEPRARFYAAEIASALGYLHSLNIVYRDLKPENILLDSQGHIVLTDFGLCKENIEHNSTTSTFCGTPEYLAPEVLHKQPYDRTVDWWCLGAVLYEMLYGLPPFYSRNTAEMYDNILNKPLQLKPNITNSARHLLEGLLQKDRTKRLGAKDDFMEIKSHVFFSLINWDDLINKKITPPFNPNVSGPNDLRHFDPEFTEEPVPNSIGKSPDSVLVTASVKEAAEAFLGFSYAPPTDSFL
Casein kinase II subunit alpha' (Homo sapiens), sequence (P19784 whole entry, looked up): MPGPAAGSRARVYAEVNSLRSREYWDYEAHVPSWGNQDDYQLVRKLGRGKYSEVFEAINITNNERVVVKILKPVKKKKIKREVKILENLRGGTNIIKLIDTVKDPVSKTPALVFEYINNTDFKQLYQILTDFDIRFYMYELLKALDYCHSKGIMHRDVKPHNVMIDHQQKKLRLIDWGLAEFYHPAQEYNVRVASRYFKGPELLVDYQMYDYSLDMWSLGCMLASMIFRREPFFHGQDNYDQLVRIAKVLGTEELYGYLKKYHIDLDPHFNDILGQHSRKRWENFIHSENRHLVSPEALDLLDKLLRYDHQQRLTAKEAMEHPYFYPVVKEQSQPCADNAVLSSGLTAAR
Tyrosine-protein kinase Mer (Homo sapiens), sequence (Q12866 whole entry): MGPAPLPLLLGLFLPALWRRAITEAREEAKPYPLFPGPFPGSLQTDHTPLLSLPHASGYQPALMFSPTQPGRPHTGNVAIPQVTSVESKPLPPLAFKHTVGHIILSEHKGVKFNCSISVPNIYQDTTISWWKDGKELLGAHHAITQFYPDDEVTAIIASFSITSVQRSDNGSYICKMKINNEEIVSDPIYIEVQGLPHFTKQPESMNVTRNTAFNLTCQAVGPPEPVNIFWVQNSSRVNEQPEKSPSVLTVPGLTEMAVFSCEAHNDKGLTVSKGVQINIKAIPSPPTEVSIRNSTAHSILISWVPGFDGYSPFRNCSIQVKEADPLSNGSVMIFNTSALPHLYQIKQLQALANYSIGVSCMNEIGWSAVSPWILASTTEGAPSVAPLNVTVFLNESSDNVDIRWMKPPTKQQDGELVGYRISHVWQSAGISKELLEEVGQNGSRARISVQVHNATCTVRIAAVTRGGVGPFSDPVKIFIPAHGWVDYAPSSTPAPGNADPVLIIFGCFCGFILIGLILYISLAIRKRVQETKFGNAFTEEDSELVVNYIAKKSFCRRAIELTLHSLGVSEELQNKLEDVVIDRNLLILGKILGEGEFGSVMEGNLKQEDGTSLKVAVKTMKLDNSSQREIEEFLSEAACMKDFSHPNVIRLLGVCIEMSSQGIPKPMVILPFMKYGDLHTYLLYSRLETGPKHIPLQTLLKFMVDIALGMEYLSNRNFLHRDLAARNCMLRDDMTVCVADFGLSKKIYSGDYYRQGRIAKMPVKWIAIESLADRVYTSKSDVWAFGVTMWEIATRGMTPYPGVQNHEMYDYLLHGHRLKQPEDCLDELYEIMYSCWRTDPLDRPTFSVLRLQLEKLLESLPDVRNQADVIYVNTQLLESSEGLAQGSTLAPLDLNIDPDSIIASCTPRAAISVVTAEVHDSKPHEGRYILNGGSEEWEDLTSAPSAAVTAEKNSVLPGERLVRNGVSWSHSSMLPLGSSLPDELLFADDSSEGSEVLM
Serine/threonine-protein kinase Nek5 (Homo sapiens), sequence (Q6P3R8 whole entry): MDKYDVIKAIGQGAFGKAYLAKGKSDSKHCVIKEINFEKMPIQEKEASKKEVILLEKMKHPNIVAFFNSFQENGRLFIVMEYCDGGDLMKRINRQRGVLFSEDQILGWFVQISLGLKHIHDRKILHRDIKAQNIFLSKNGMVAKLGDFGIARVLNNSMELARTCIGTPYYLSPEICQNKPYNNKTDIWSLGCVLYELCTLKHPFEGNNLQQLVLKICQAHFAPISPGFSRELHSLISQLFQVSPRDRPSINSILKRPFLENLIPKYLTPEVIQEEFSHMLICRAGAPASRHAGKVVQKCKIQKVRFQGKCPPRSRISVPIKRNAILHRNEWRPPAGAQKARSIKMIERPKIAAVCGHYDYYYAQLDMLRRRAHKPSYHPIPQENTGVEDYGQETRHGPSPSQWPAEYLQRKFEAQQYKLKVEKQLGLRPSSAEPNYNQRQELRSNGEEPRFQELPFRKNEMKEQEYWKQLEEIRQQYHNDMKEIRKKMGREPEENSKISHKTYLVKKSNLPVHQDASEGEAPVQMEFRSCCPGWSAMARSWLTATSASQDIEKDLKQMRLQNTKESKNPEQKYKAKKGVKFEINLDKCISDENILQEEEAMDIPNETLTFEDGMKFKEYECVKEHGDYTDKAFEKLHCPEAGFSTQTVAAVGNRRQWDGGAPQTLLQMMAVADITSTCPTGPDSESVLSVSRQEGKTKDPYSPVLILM
Mitogen-activated protein kinase kinase kinase kinase 2 MAP4K2 (Homo sapiens), sequence (Q12851 whole entry, looked up): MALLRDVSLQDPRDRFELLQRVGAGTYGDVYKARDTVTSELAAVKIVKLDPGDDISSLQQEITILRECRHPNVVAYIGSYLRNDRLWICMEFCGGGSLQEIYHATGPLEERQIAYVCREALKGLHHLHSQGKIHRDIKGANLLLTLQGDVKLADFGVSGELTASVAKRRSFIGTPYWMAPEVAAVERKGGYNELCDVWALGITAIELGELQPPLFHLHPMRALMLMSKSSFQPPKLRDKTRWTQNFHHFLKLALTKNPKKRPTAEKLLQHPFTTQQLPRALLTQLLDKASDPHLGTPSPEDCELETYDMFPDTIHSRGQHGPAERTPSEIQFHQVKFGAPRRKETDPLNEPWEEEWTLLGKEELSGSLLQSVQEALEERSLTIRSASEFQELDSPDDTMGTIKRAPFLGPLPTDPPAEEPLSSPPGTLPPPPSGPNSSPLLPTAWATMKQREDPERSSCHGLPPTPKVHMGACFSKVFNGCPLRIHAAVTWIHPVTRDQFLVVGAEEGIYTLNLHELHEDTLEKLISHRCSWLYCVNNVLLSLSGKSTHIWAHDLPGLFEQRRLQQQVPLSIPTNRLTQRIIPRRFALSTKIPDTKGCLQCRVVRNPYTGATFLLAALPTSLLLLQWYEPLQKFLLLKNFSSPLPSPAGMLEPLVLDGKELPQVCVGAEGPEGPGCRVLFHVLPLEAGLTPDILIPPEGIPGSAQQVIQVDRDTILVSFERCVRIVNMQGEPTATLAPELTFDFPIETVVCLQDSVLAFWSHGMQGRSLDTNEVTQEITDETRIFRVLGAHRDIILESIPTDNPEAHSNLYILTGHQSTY
Serine/threonine-protein kinase 38-like (Homo sapiens), sequence (Q9Y2H1 2-464 limits assumed): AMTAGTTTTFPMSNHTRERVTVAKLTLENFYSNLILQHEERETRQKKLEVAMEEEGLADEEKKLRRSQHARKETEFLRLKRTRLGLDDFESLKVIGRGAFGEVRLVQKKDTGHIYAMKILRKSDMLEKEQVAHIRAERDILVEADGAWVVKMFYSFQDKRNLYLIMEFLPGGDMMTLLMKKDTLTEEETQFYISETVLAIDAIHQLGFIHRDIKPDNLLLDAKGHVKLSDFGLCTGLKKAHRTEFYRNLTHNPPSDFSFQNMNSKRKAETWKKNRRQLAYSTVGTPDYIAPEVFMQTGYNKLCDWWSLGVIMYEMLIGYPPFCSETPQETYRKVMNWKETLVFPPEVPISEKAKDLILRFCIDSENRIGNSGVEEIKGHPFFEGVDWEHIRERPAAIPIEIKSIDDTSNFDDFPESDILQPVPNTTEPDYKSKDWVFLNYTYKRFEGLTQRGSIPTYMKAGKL

| SMILES | inhibition [1] | inhibition [2] | inhibition [3] | inhibition [4] | inhibition [5] | inhibition [6] | inhibition [7] | inhibition [8] | inhibition [9] | inhibition [10] | inhibition [11] | inhibition [12] | inhibition [13] | inhibition [14] | inhibition [15] | inhibition [16] | Ki ([17]; read-out: Ki) | Ki ([17]; read-out: pKi (converted)) |
| --- | --- | --- | --- | --- | --- | --- | --- | --- | --- | --- | --- | --- | --- | --- | --- | --- | --- | --- |
| O=C1NCCCC1N1Cc2cc(C3CCN(C(=O)CCCCCN4CCC(c5ccc(Oc6nn7cnnc7c7c6CCCC7)cc5)CC4)CC3)ccc2C1=O (stereo not drawn) | 10.8% | 11.2% | 14.4% | 13.3% | 13.4% | 10.9% | 8% | 17.9% | 10.1% | 11.4% | 10.9% | 17.5% | – | – | – | – | – | – |
| O=C1CCC(N2Cc3cc(C4CCN(C(=O)CCCCCN5CCC(c6ccc(Oc7nn8cnnc8c8c7CCCC8)cc6)CC5)CC4)ccc3C2=O)C(=O)N1 (stereo not drawn) | – | – | – | – | – | – | – | – | – | – | – | – | 19.4% | 12.3% | 19.7% | 11.3% | 568 nM | 562 nM |
